Source: BindingDB's records for doi:10.1021/jm0310479 (Roche Diagnostics, 2004)
Structures can show the parent of a compound that is named as a salt.

Tests used:
[1] = biological target: RAC-alpha serine/threonine-protein kinase (Homo sapiens, UniProt P31749); assay: PKB In Vitro Kinase Assay; conditions: pH 7.5; 22 °C
Procedure: An ELISA-based assay has been developed for the serine/threonine kinase, PKB-alpha. The assay utilizes an N-terminally biotinylated substrate peptide. When this substrate is phosphorylated by the kinase, the product is recognized by a substrate/sequence-specific antibody, which binds to particular phosphorylated serine residues. […] Calculation of IC50 values was performed with ActivityBase.

[2] = biological target: cAMP-dependent protein kinase catalytic subunit alpha (Bos taurus, UniProt P00517); assay: Fluorescence Polarization-based Assay; conditions: pH 7.2; 22 °C
Procedure: In this assay, a fluorescent phosphopeptide tracer and the nonfluorescent phosphopeptides generated during a PKA reaction compete for binding to an antiphosphoserine antibody. In a reaction mixture containing phosphopeptide product, the fluorescent tracer is displaced from the antibody and the emission signal becomes depolarized. Enzymatic activity was measured by detection of fluorescence polarity in a Victor 2 reader (Wallac, Finland). […] Calculation of IC50 values was performed with ActivityBase.

Sequence of RAC-alpha serine/threonine-protein kinase (P31749 whole entry): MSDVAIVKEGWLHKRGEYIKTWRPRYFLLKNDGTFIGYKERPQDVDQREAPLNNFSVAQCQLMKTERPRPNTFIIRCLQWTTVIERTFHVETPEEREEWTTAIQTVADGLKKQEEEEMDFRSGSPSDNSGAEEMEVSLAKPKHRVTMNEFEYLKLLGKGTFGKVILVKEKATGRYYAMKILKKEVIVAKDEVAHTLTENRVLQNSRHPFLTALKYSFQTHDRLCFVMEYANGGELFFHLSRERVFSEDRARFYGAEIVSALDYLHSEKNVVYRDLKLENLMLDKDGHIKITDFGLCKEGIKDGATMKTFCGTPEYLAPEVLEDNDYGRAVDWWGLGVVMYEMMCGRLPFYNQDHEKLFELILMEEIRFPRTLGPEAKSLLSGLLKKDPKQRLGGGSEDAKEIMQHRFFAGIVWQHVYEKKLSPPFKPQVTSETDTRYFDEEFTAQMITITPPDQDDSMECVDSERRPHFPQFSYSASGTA

COc1ccc(O)c(C(=O)c2ccc(CO[C@@H]3CCCNC[C@H]3NC(=O)c3ccncc3)cc2)c1F [N-((3R,4R)-4-{[4-(2-fluoro-6-hydroxy-3-methoxybenzoyl)benzyl]oxy}azepan-3-yl)isonicotinamide dihydrochloride]
IC50 [1]: 0.355 µM

COc1ccc(O)c(C(=O)c2ccc(NC[C@@H]3CCCNC[C@H]3NC(=O)c3ccncc3)cc2)c1F [N-[(3S,4S)-4-[({4-[(2-fluoro-6-hydroxy-3-methoxyphenyl)carbonyl]phenyl}amino)methyl]azepan-3-yl]pyridine-4-carboxamide trihydrochloride]
IC50 [1]: 25 µM | IC50 [2]: 45 µM
